Key:
Assay in all cases: relative viability (nuclei count vs DMSO), 5 days (fraction); higher = more cells survive
[1] = compound: C=CCn1c(=O)c2cnc(Nc3ccc(N4CCN(C)CC4)cc3)nc2n1-c1cccc(C(C)(C)O)n1 [Adavosertib] + O=C(c1cc(Cc2n[nH]c(=O)c3ccccc23)ccc1F)N1CCN(C(=O)C2CC2)CC1 [Olaparib] (partner 8 µM)
In short: (§1)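 After 5 days of treatment, lung cancer cells in 1536-well plates were fixed and stained in a single step (final 0.05% Triton X-100, 1% formaldehyde, 1 ug/ml Hoechst) and their nuclei counted on 4× images. Treatment had been applied by pin tool the day after seeding as one drug alone or as a fixed anchor-drug dose with five library-drug doses (not always all listed) in √10 steps. Relative viability is the nuclei count of treated wells divided by that of vehicle wells, and values are medians of duplicate plates.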

[2] = compound: C=CCn1c(=O)c2cnc(Nc3ccc(N4CCN(C)CC4)cc3)nc2n1-c1cccc(C(C)(C)O)n1 [Adavosertib] + CCNC(=O)c1noc(-c2cc(C(C)C)c(O)cc2O)c1-c1ccc(CN2CCOCC2)cc1 [Luminespib] (partner 0.01 µM)
In short: as §1

[3] = compound: COc1nc(N)nc2c1ncn2[C@@H]1O[C@H](CO)[C@@H](O)[C@@H]1O [Nelarabine] + C[C@]1(O)C[C@@H](c2nc(-c3ccc4ccc(-c5ccccc5)nc4c3)c3c(N)nccn32)C1 [Linsitinib] (partner 1 µM)
In short: as §1

[4] = compound: COc1nc(N)nc2c1ncn2[C@@H]1O[C@H](CO)[C@@H](O)[C@@H]1O [Nelarabine] + Nc1ncn([C@H]2C[C@H](O)[C@@H](CO)O2)c(=O)n1 [Decitabine] (partner 2 µM)
In short: as §1

Cell Line | relative viability ([1]; first compound 0.01 µM) | relative viability ([1]; first compound 0.03162 µM) | relative viability ([1]; first compound 0.1 µM) | relative viability ([1]; first compound 0.3162 µM) | relative viability ([2]; first compound 0.01 µM) | relative viability ([2]; first compound 0.03162 µM) | relative viability ([2]; first compound 0.1 µM) | relative viability ([2]; first compound 0.3162 µM) | relative viability ([3]; first compound 0.01 µM) | relative viability ([3]; first compound 0.03162 µM) | relative viability ([3]; first compound 0.1 µM) | relative viability ([3]; first compound 0.3162 µM) | relative viability ([3]; first compound 1 µM) | relative viability ([4]; first compound 0.01 µM) | relative viability ([4]; first compound 0.03162 µM) | relative viability ([4]; first compound 0.1 µM) | relative viability ([4]; first compound 0.3162 µM) | relative viability ([4]; first compound 1 µM)
NCI-H2347 | 0.584 | 0.595 | 0.548 | 0.54 | 0.467 | 0.382 | 0.723 | 0.292 | 1.08 | 1.02 | 0.968 | 0.939 | 1.04 | 0.576 | 0.596 | 0.615 | 0.626 | 0.593
NCI-H3122 | 0.662 | 0.611 | 0.549 | 0.575 | 0.0987 | 0.0823 | 0.12 | 0.0969 | 1.04 | 0.77 | – | 0.97 | 1.04 | 0.419 | 0.299 | – | 0.463 | 0.476
HCC-15 | 0.73 | 0.727 | 0.958 | 0.876 | 0.309 | 0.325 | 0.334 | 0.359 | 1.06 | 0.841 | 0.904 | 0.87 | 1 | 0.739 | 0.58 | 0.656 | 0.63 | 0.731
HCC-78 | 0.966 | 0.807 | 0.83 | 0.835 | – | – | – | – | 0.627 | 0.506 | – | 0.536 | 0.574 | 0.713 | 0.639 | – | 0.843 | 0.737
A549 | 0.356 | 0.336 | 0.446 | 0.438 | – | – | – | – | 0.714 | 0.622 | 0.585 | 0.523 | 0.642 | 0.293 | 0.282 | 0.271 | 0.287 | 0.23
PC-3 [JPC-3] | – | 1.09 | 1.2 | 1.14 | 0.665 | 0.746 | 0.657 | 0.724 | 1.05 | 0.958 | 0.943 | 0.942 | 0.975 | 0.84 | 0.81 | 0.843 | 0.799 | 0.872
NCI-H1395 | 0.561 | 0.547 | 0.409 | 0.438 | 0.836 | 0.741 | 0.734 | 0.424 | 1.1 | 1.15 | 1.17 | 0.974 | 1.2 | 0.678 | 0.65 | 0.723 | 0.7 | 0.704
SK-MES-1 | 0.748 | 0.805 | 0.379 | 0.233 | 0.604 | 0.723 | 0.559 | 0.236 | 1.15 | 1.09 | 1.03 | 1.1 | 1.08 | 0.359 | 0.347 | 0.375 | 0.422 | 0.35
CAL-12T | 0.722 | 0.723 | 0.863 | 0.475 | 0.312 | 0.102 | 0.601 | 0.23 | 0.857 | 0.931 | 0.809 | 0.778 | 0.832 | – | – | – | – | –
LCLC-97TM1 | 0.412 | 0.369 | 0.439 | 0.303 | 0.78 | 0.54 | 0.982 | 0.804 | 0.222 | 0.163 | 0.242 | 0.225 | 0.186 | – | – | 0.274 | 0.279 | 0.241
HOP-62 | 0.429 | 0.3 | 0.663 | 0.254 | 0.997 | 0.906 | 0.909 | 0.945 | 0.933 | 0.967 | 1.11 | 0.872 | 0.801 | 0.214 | 0.194 | 0.23 | 0.182 | 0.229
NCI-H1703 | 0.507 | 0.545 | 0.387 | 0.141 | – | – | – | – | 1.05 | 0.66 | 0.666 | 0.541 | 0.834 | – | – | – | – | –
NCI-H596 | 0.736 | 0.791 | 0.52 | 0.591 | 0.911 | 1.2 | 0.958 | 0.76 | 1.15 | 1.2 | 1.07 | 1.16 | 1.04 | 1.09 | 0.972 | 1.06 | 1.09 | 1.13
NCI-H2126 | 0.909 | 0.939 | 0.915 | 0.919 | 0.831 | 0.832 | 0.897 | 0.93 | 0.71 | 0.824 | 0.754 | 0.711 | 0.689 | 0.658 | 0.616 | 0.563 | 0.594 | 0.559
NCI-H2087 | 0.663 | 0.595 | 0.606 | 0.604 | 0.208 | 0.187 | 0.194 | 0.195 | 1.06 | 0.897 | 1.06 | 1.05 | 0.914 | 0.248 | 0.28 | 0.309 | 0.335 | 0.3
NCI-H1355 | 0.736 | 0.698 | 0.757 | 0.685 | 0.671 | 0.644 | 0.617 | 0.631 | 1.04 | 0.688 | 0.739 | 0.822 | 0.887 | 0.359 | 0.347 | 0.368 | 0.37 | 0.382
EBC-1 | 0.624 | 0.765 | 0.83 | 0.647 | – | – | – | – | 0.99 | 1.13 | 0.929 | 0.91 | 0.939 | – | – | – | – | –
ABC-1 | 0.942 | 0.779 | 1.02 | 0.664 | 0.799 | 0.357 | 0.584 | 0.364 | 0.955 | 1.19 | 0.83 | 0.809 | 0.723 | 1.25 | 1.21 | 1.09 | 1.05 | 0.972
NCI-H358 | 0.563 | 0.517 | 0.416 | 0.329 | 0.28 | 0.307 | 0.454 | 0.359 | 0.891 | 0.613 | 0.694 | 0.865 | 0.74 | 0.219 | 0.214 | 0.171 | 0.215 | 0.219
NCI-H520 | 0.345 | 0.332 | 0.308 | 0.332 | 0.227 | 0.214 | 0.243 | 0.213 | 1.19 | 0.889 | 1.24 | 1.08 | 1.05 | 0.566 | 0.44 | 0.512 | 0.617 | 0.485

From the supplement of paper PMC10307832
